These are literature values, as cited in patent publication US10639299B2, “Calcium sensing receptors, ligands, compositions, and methods of use” (Georgia State University Research Foundation, Inc., priority 2016, dated 2020).

In data set [1] the target is T1, CaSR (Homo sapiens, UniProt P41180).
T1 sequence (P41180 20-1078): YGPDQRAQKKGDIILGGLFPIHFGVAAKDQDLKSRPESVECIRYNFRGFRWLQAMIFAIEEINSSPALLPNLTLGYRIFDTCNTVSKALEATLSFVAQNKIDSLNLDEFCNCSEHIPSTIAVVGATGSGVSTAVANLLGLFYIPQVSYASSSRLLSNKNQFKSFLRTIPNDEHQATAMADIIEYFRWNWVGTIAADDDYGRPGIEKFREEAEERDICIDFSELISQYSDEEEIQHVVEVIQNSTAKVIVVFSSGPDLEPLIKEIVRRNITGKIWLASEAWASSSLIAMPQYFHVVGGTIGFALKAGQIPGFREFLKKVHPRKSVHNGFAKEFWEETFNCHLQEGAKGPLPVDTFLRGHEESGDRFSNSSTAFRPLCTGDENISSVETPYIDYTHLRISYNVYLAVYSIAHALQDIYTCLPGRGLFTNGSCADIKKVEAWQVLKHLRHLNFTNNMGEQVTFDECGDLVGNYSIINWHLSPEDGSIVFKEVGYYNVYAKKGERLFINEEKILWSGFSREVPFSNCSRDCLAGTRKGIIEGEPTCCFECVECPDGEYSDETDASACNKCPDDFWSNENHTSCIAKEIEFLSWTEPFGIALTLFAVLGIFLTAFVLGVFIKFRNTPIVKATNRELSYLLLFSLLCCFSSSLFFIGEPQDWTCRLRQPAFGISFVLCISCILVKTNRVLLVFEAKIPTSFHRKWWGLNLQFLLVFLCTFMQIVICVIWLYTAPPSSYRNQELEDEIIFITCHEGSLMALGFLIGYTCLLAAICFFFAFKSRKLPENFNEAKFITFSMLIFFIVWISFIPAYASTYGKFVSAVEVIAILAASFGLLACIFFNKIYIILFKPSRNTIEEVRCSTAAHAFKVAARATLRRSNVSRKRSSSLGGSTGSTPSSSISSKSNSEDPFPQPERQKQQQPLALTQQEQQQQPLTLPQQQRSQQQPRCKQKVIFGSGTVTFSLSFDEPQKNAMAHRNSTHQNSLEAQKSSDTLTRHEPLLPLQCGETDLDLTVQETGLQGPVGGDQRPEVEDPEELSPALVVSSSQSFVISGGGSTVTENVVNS
On the set-up: host or cells: HEK cells, transient. Conditions: HEK cells, in the presence of 150 mM NaCl; read-out: EC50 for intracellular calcium responses; cited from earlier work.

For a further data set, the target named is T2, rat CaSR (Rattus norvegicus, UniProt P48442).
T2 construct: host or cells: CHO cells, transient
T2 sequence (P48442 20-1079): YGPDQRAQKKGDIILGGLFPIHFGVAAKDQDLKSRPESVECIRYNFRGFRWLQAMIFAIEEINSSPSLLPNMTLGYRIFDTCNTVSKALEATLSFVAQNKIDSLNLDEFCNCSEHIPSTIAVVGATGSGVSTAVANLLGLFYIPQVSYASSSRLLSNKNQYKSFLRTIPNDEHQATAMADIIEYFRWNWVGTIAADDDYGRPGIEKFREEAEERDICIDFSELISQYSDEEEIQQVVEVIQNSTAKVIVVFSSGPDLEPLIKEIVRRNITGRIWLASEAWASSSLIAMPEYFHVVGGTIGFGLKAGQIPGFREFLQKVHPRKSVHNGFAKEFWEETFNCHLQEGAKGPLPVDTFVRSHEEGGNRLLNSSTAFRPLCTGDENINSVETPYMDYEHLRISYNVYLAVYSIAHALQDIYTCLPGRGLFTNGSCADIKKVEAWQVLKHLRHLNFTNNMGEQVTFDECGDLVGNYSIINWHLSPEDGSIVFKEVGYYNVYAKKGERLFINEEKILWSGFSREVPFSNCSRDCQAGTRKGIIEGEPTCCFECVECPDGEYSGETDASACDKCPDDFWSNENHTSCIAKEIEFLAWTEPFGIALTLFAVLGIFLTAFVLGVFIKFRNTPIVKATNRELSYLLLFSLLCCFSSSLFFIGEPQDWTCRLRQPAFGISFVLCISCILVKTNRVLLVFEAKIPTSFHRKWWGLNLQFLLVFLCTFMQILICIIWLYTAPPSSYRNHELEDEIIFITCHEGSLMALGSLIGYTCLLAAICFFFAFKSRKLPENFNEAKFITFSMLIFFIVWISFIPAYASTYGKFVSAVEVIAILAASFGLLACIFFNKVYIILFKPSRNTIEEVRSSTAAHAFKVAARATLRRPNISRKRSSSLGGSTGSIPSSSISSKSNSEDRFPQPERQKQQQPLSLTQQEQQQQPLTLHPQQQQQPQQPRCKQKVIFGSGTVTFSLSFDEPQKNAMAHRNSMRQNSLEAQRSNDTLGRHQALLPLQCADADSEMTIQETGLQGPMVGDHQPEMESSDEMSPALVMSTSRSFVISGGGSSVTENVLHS
The note with it: CHO cells; cited from earlier work.

Data set [2] addresses T3, CaSR (Bos taurus, UniProt P35384).
T3 construct: host or cells: X. laevis oocytes
T3 sequence (P35384 20-1085): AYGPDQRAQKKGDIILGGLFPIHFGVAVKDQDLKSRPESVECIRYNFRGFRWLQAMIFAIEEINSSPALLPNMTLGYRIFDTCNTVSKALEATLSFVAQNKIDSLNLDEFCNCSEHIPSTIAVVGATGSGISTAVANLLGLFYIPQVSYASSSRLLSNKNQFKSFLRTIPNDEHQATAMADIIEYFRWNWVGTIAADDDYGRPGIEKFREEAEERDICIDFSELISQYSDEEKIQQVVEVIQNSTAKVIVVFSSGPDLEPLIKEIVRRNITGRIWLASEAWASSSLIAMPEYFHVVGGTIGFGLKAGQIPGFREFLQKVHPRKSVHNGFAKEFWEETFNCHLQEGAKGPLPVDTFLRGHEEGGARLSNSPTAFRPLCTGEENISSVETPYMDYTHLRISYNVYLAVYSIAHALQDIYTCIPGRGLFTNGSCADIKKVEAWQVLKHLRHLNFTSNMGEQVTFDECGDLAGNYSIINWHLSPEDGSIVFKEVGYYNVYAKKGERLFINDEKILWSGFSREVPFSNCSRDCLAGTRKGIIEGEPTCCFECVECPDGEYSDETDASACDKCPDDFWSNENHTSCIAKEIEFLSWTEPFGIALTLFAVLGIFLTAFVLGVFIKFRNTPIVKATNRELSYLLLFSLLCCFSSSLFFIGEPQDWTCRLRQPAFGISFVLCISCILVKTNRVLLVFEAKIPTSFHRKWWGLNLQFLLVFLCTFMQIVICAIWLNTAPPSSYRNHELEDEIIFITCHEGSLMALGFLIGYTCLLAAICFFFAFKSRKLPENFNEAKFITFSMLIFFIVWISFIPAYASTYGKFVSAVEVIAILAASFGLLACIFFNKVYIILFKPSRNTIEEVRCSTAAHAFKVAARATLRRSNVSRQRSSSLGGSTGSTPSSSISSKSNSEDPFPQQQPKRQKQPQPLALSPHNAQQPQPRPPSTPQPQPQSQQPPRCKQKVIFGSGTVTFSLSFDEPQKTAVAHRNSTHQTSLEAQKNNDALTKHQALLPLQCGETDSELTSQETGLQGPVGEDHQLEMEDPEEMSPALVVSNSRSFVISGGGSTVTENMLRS
The note with it: X. laevis oocytes; cited from earlier work.

In the case of `[Mg+2]` [Mg^2+, magnesium], the EC50 on CaSR [1] is 15 to 20 mM; on CaSR [2], 10 mM. Also, on rat CaSR, the “EC50 relative to that of Ca^2+” value is “about twice”.
